According to patent US20250041429A1, “COMPOUND HAVING BTK PROTEIN DEGRADATION ACTIVITY, AND MEDICAL USES THEREOF” (UBIX THERAPEUTICS, INC., priority 2021, published 2025):

Target: T1, BTK protein (Homo sapiens, UniProt Q06187)
T1 construct: endogenous in cells; host or cells: TMD-8 cells
Experiment: Measurement of BTK protein degradation ability in TMD-8 cells (Western blotting)
Type: cell-based
Settings: harvested after 24 hours; for BTK degradation (%) 1 nM: compound 1 nM; for BTK degradation (%) 10 nM: compound 10 nM; for BTK degradation (%) 100 nM: compound 100 nM
In short: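 BTK levels were measured by immunoblotting of equal-protein RIPA lysates, normalized to GAPDH or β-actin, with chemiluminescent or infrared detection. Lysates came from TMD-8 cells exposed to compound for 24 h at final concentrations of 0.1, 1, 10 μM or 0.0001–0.1 μM, against a DMSO control.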

T1 sequence (Q06187 whole entry): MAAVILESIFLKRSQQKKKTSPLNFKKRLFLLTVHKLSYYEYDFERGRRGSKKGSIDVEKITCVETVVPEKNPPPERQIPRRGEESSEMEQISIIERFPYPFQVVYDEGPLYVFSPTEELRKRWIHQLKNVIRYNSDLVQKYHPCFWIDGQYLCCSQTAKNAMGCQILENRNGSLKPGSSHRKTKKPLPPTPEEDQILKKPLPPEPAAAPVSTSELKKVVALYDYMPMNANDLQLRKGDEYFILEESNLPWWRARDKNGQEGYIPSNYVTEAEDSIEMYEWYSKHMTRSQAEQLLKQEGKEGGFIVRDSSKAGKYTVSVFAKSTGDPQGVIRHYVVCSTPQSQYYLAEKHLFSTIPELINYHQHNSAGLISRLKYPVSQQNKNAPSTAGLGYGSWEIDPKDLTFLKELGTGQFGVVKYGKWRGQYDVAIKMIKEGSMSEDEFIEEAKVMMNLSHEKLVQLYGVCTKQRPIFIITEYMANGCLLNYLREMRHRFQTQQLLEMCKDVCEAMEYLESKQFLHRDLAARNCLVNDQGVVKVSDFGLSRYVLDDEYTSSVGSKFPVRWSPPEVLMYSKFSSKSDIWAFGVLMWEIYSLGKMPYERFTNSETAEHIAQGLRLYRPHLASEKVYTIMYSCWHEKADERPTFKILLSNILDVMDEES

SMILES | BTK degradation (%) 1 nM [%] | BTK degradation (%) 10 nM [%] | BTK degradation (%) 100 nM [%]
Cc1cc(-c2ccnc(Nc3ccc(N4CCN(CC5CCN(c6cccc(OC7CCC(=O)NC7=O)c6)CC5)CC4)cc3)n2)ccc1CNC(=O)N1CC(OC(C)C)C1 (stereo not shown) [Example 42, N-(4-(2-((4-(4-((1-(3-((2,6-dioxopiperidin-3-yl)oxy)phenyl)piperidin-4-yl)methyl)piperazin-1-yl)phenyl)amino)pyrimidin-4-yl)-2-methylbenzyl)-3-isopropoxyazetidine-1-carboxamide] | 60.5 | 97.5 | 100.0
Cc1cc(-c2ccnc(Nc3ccc(N4CCN(CC5CCN(c6ccc7c(n6)CN(C6CCC(=O)NC6=O)C7=O)CC5)CC4)cc3)n2)ccc1CNC(=O)N1CC(OC(C)C)C1 (stereo not shown) [Example 10, N-(4-(2-((4-(4-((1-(6-(2,6-dioxopiperidin-3-yl)-5-oxo-6,7-dihydro-5H-pyrrolo[3,4-b]pyridin-2-yl)piperidin-4-yl)methyl)piperazin-1-yl)phenyl)amino)pyrimidin-4-yl)-2-methylbenzyl)-3-isopropoxyazetidine-1-carboxamide] | 56 | 94.5 | 98.5
Cc1cc(-c2ccnc(Nc3ccc(N4CCN(CC5CCN(c6ccc(N7CCC(=O)NC7=O)cc6)CC5)CC4)nc3)n2)ccc1CNC(=O)c1cn(C(C)(C)C)nn1 [Example 77] | 57.5 | 96.0 | 99.5
Cc1cc(-c2ccnc(Nc3ccc(N4CCN(CC5CN(C(=O)c6cccc(NC7CCC(=O)NC7=O)c6)C5)CC4)cc3)n2)ccc1CNC(=O)c1cnn(C(C)(C)C)c1 (stereo not shown) [Example 96, 1-(tert-butyl)-N-(4-(2-((4-(4-((1-(3-((2,6-dioxopiperidin-3-yl)amino)benzoyl)azetidin-3-yl)methyl)piperazin-1-yl)phenyl)amino)pyrimidin-4-yl)-2-methylbenzyl)-1H-pyrazole-4-carboxamide] | 70.0 | 95.5 | 98.0
Cc1cc(-c2ccnc(Nc3ccc(C4CCN(CC5CCN(c6cccc(N7CCC(=O)NC7=O)c6)CC5)CC4)cc3)n2)ccc1CNC(=O)c1cnn(C(C)C)c1 [Example 84, N-(4-(2-((4-(1-((1-(3-(2,4-dioxotetrahydropyrimidin-1 (2H)-yl)phenyl)piperidin-4-yl)methyl)piperidin-4-yl)phenyl)amino)pyrimidin-4-yl)-2-methylbenzyl)-1-isopropyl-1H-pyrazole-4-carboxamide] | 36.0 | 92.0 | 99.0
Cc1cc(-c2ccnc(Nc3cnn(C4CCN(CC5CN(c6ccc7c(c6)C(=O)N(C6CCC(=O)NC6=O)C7=O)C5)CC4)c3)n2)ccc1CNC(=O)c1cnn(C(C)(C)C)c1 (stereo not shown) [Example 38, 1-(tert-butyl)-N-(4-(2-((1-(1-((1-(2-(2,6-dioxopiperidin-3-yl)-1,3-dioxoisoindolin-5-yl)azetidin-3-yl)methyl)piperidin-4-yl)-1H-pyrazol-4-yl)amino)pyrimidin-4-yl)-2-methylbenzyl)-1H-pyrazole-4-carboxamide] | 72.5 | 96 | 98.5
Cc1cc(-c2ccnc(Nc3ccc(N4CCC(CN5CCC(c6ccc(OC7CCC(=O)NC7=O)cn6)CC5)CC4)cc3)n2)ccc1CNC(=O)N1CC(OC(C)C)C1 (stereo not shown) [Example 124, N-(4-(2-((4-(4-((4-(5-((2,6-dioxopiperidin-3-yl)oxy)pyridin-2-yl)piperidin-1-yl)methyl)piperidin-1-yl)phenyl)amino)pyrimidin-4-yl)-2-methylbenzyl)-3-isopropoxyazetidine-1-carboxamide] | −1.3 | 63.7 | 97.7
Cc1cc(-c2ccnc(Nc3ccc(N4CCN(CC5CCN(c6ccc7c(c6)C(=O)N(C6CCC(=O)NC6=O)C7=O)CC5)CC4)nc3)n2)ccc1CNC(=O)N1CC(OC(C)C)C1 (stereo not shown) [Example 17, N-(4-(2-((6-(4-((1-(2-(2,6-dioxopiperidin-3-yl)-1,3-dioxoisoindolin-5-yl)piperidin-4-yl)methyl)piperazin-1-yl)pyridin-3-yl)amino)pyrimidin-4-yl)-2-methylbenzyl)-3-isopropoxyazetidine-1-carboxamide] | 37 | 91 | 98
Cc1cc(-c2ccnc(Nc3ccc(N4CCC(CN5CCC(c6ccc(NC7CCC(=O)NC7=O)cn6)CC5)CC4)cc3)n2)ccc1CNC(=O)c1cnn(C(C)C)c1 (stereo not shown) [Example 128, N-(4-(2-((4-(4-((4-(5-((2,6-dioxopiperidin-3-yl)amino)pyridin-2-yl)piperidin-1-yl)methyl)piperidin-1-yl)phenyl)amino)pyrimidin-4-yl)-2-methylbenzyl)-1-isopropyl-1H-pyrazole-4-carboxamide] | 51.5 | 94.5 | 99.0
Cc1cc(-c2ccnc(Nc3ccc(N4CCN(CC5CCN(C(=O)c6cccc(NC7CCC(=O)NC7=O)c6)CC5)CC4)cc3)n2)ccc1CNC(=O)N1CC(OC(C)C)C1 (stereo not shown) [Example 87, N-(4-(2-((4-(4-((1-(3-((2,6-dioxopiperidin-3-yl)amino)benzoyl)piperidin-4-yl)methyl)piperazin-1-yl)phenyl)amino)pyrimidin-4-yl)-2-methylbenzyl)-3-isopropoxyazetidine-1-carboxamide] | 36.5 | 94.5 | 98.5
Cc1cc(-c2ccnc(Nc3ccc(N4CCN(CC5CCN(c6cccc(NC7CCC(=O)NC7=O)c6)CC5)CC4)cc3)n2)ccc1CNC(=O)c1cnn(C(C)(C)C)c1 (stereo not shown) [Example 59, 1-(tert-butyl)-N-(4-(2-((4-(4-((1-(3-((2,6-dioxopiperidin-3-yl)amino)phenyl)piperidin-4-yl)methyl)piperazin-1-yl)phenyl)amino)pyrimidin-4-yl)-2-methylbenzyl)-1H-pyrazole-4-carboxamide] | 72.0 | 97.0 | 99.0
Cc1cc(-c2ccnc(Nc3ccc(N4CCN(CC5CCN(c6ccc7c(c6)C(=O)N(C6CCC(=O)NC6=O)C7=O)CC5)CC4)cc3)n2)ccc1CNC(=O)c1cn(C(C)(C)C)nn1 (stereo not shown) [Example 9, 1-(tert-butyl)-N-(4-(2-((4-(4-((1-(2-(2,6-dioxopiperidin-3-yl)-1,3-dioxoisoindolin-5-yl)piperidin-4-yl)methyl)piperazin-1-yl)phenyl)amino)pyrimidin-4-yl)-2-methylbenzyl)-1H-1,2,3-triazole-4-carboxamide] |  | 76.5 | 96.5
Cc1cc(-c2ccnc(Nc3ccc(N4CCN(CC5CCN(c6ccc(NC7CCC(=O)NC7=O)cn6)CC5)CC4)cc3)n2)ccc1CNC(=O)c1cnn(C(C)(C)C)c1 (stereo not shown) [Example 60, 1-(tert-butyl)-N-(4-(2-((4-(4-((1-(5-((2,6-dioxopiperidin-3-yl)amino)pyridin-2-yl)piperidin-4-yl)methyl)piperazin-1-yl)phenyl)amino)pyrimidin-4-yl)-2-methylbenzyl)-1H-pyrazole-4-carboxamide] | 58.0 | 96.5 | 99.5
Cc1cc(-c2ccnc(Nc3ccc(N4CCN(CC5CCN(c6cccc(NC7CCC(=O)NC7=O)c6)CC5)CC4)cc3)n2)ccc1CNC(=O)c1cn(C(C)(C)C)nn1 (stereo not shown) [Example 61, 1-(tert-butyl)-N-(4-(2-((4-(4-((1-(3-((2,6-dioxopiperidin-3-yl)amino)phenyl)piperidin-4-yl)methyl)piperazin-1-yl)phenyl)amino)pyrimidin-4-yl)-2-methylbenzyl)-1H-1,2,3-triazole-4-carboxamide] | 66.5 | 95.5 | 99.0
Cc1cc(-c2ccnc(Nc3ccc(C4CCN(CC5CCN(c6ccc(NC7CCC(=O)NC7=O)cn6)CC5)CC4)cc3)n2)ccc1CNC(=O)N1CC(OC(C)C)C1 (stereo not shown) [Example 53, N-(4-(2-((4-(1-((1-(5-((2,6-dioxopiperidin-3-yl)amino)pyridin-2-yl)piperidin-4-yl)methyl)piperidin-4-yl)phenyl)amino)pyrimidin-4-yl)-2-methylbenzyl)-3-isopropoxyazetidine-1-carboxamide] | 13.3 | 86.7 | 99.3
Cc1cc(-c2ccnc(Nc3ccc(N4CCN(CC5CCN(c6ccc(NC7CCC(=O)NC7=O)cn6)CC5)CC4)cc3)n2)ccc1CNC(=O)c1cn(C(C)(C)C)nn1 (stereo not shown) [Example 62] | 57.0 | 97.5 | 100.0
Cc1cc(-c2ccnc(Nc3ccc4c(c3)CN(CC3CCN(c5ccc6c(c5)C(=O)N(C5CCC(=O)NC5=O)C6=O)CC3)CC4)n2)ccc1CNC(=O)c1cn(C(C)(C)C)nn1 (stereo not shown) [Example 3, 1-(tert-butyl)-N-(4-(2-((2-((1-(2-(2,6-dioxopiperidin-3-yl)-1,3-dioxoisoindolin-5-yl)piperidin-4-yl)methyl)-1,2,3,4-tetrahydroisoquinolin-7-yl)amino)pyrimidin-4-yl)-2-methylbenzyl)-1H-1,2,3-triazole-4-carboxamide] |  | 84 | 93
Cc1cc(-c2ccnc(Nc3ccc(N4CCN(C5CCN(c6ccc7c(c6)C(=O)N(C6CCC(=O)NC6=O)C7=O)CC5)CC4)cc3)n2)ccc1CNC(=O)N1CC(OC(C)C)C1 (stereo not shown) [Example 109, N-(4-(2-((4-(4-(1-(2-(2,6-dioxopiperidin-3-yl)-1,3-dioxoisoindolin-5-yl)piperidin-4-yl)piperazin-1-yl)phenyl)amino)pyrimidin-4-yl)-2-methylbenzyl)-3-isopropoxyazetidine-1-carboxamide] | 41.5 | 94.0 | 99.5
